Results from ChEMBL document CHEMBL3808296, “A combined in silico/in vitro approach unveils common molecular requirements for efficient BVDV RdRp binding of linear aromatic N-polycyclic systems” (Eur J Med Chem, 2016).

Assays:
[1] = Inhibition of His tagged BVDV NS5B Cdelta24 RNA dependent RNA polymerase expressed in Escherichia coli Rosetta DE3 preincubated for 30 mins followed by addition of GTP measured after 120 mins by fluorescence analysis; parameters: species or system Bovine viral diarrhea virus 1
[2] = Inhibition of His tagged BVDV NS5B Cdelta24 RNA dependent RNA polymerase K263A mutant expressed in Escherichia coli Rosetta DE3 preincubated for 30 mins followed by addition of GTP measured after 120 mins by fluorescence analysis; parameters: species or system Bovine viral diarrhea virus 1
[3] = test system: Bovine viral diarrhea virus 1; assay: Antiviral activity against BVDV; type: functional, organism-based; details: Bovine viral diarrhea virus isolates and strains
[4] = Inhibition of BVDV RNA-dependent RNA polymerase; parameters: species or system Bovine viral diarrhea virus 1
[5] = Inhibition of HCV RNA-dependent RNA polymerase; parameters: species or system Hepacivirus hominis
[6] = Cytotoxicity against mock-infected MDBK cells assessed as reduction in cell viability after 72 hrs by MTT assay; type: cell-based, Bos taurus; details: cattle
[7] = Antiviral activity against BVDV NADL infected in MDBK cells assessed as inhibition of virus induced cytopathogenicity after 3 to 4 days by MTT assay; type: functional, cell-based, Bovine viral diarrhea virus 1-NADL; details: Bovine viral diarrhea virus isolates and strains
[8] = Cytotoxicity against mock-infected BHK21 cells assessed as reduction in cell viability after 72 hrs by MTT assay; type: cell-based, Mesocricetus auratus, BHK-21; details: hamster
[9] = test system: Yellow fever virus; assay: Antiviral activity against Yellow fever virus 17D infected in BHK21 cells assessed as inhibition of virus induced cytopathogenicity after 3 to 4 days by MTT assay; type: functional, cell-based; details: BHK-21
[10] = test system: Mammalian orthoreovirus 1; assay: Antiviral activity against Reovirus type-1 3651 infected in BHK21 cells assessed as inhibition of virus induced cytopathogenicity after 3 to 4 days by MTT assay; type: functional, cell-based; details: Mammalian orthoreovirus 1, 3651, BHK-21
[11] = Cytotoxicity against mock-infected african green monkey Vero 76 cells assessed as reduction in cell viability after 48 to 96 hrs by MTT assay; type: cell-based; details: chlorocebus sabaeus, mock-infected Vero 76 cells
[12] = test system: Coxsackievirus B2; assay: Antiviral activity against CVB-2 infected in Vero 76 cells after 3 days by crystal violet staining based plaque reduction assay; type: functional, organism-based; details: Enterovirus B, Vero 76, 72 h
[13] = test system: Poliovirus 1; assay: Antiviral activity against Human poliovirus 1 strain Sabin infected in Vero 76 cells after 2 days by crystal violet staining based plaque reduction assay; type: functional, organism-based; details: Enterovirus C, Vero 76, 48 h
[14] = test system: Respiratory syncytial virus; assay: Antiviral activity against Respiratory syncytial virus A2 infected in Vero 76 cells after 5 days by crystal violet staining based plaque reduction assay; type: functional, organism-based; details: human respiratory syncytial virus, A2, Vero 76, 120 h
[15] = test system: Vesicular stomatitis virus; assay: Antiviral activity against Vesicular stomatitis virus Indiana infected in Vero 76 cells after 2 days by crystal violet staining based plaque reduction assay; type: functional, organism-based; details: Vero 76, 48 h
[16] = test system: Vaccinia virus; assay: Antiviral activity against Vaccinia virus Elstree infected in Vero 76 cells after 3 days by crystal violet staining based plaque reduction assay; type: functional, organism-based; details: Orthopoxvirus vaccinia, Vero 76, 72 h
[17] = Selectivity index, ratio of CC50 for MDBK cells to EC50 for […] NADL infected in MDBK cells

Row | Structure (SMILES) | CC50 at 72 h [6] | EC50 [7] | CC50 at 72 h [8] | CC50 [11] | EC50 [12] | EC50 [16] | Ratio CC50/EC50 [17] | further results
1 | O=[N+]([O-])c1c2cccnc2c(Cl)c2[nH]nnc12 | – | – | – | – | – | – | – | IC50 [1]: 9 µM; IC50 [2]: 140 µM
2 | O=[N+]([O-])c1ccc(-c2nc3cc4cccnc4c(Cl)c3[nH]2)cc1 | > 100 µM | – | – | – | – | – | – | EC50 [3]: 1.2 µM; IC50 [4]: 0.06 µM; IC50 [5]: 8 µM
3 | CC(C)c1nc2c(Cl)c3ncccc3cc2[nH]c1=O | – | > 100 µM | – | – | – | – | – | –
4 | COc1ccc(-c2nc3cc(/C(C)=N/NC(N)=S)ccc3[nH]2)c(OC)c1 | – | 0.002 µM | – | – | – | – | – | –
5 | CC(=O)c1ccc(-c2nc3cccnc3[nH]2)cc1 | – | > 100 µM | – | – | – | – | – | –
6 | N#Cc1ccc(-c2nc3ccncc3[nH]2)cc1 | – | 9 µM | – | – | – | – | – | –
7 | CC(=O)c1ccc(-c2nc3ccncc3[nH]2)cc1 | – | 7 µM | – | – | – | – | – | IC50 [1]: 11 µM; IC50 [2]: 15 µM
8 | N#Cc1ccc(/C=N/c2cc3cccnc3c(Cl)c2N)cc1 | – | 2 µM | – | – | – | – | – | –
9 | Nc1c(/N=C/c2ccc([N+](=O)[O-])cc2)cc2cccnc2c1Cl | – | 1.7 µM | – | – | – | – | – | IC50 [1]: 0.81 µM; IC50 [2]: 1 µM
10 | COc1nc2cc3cccnc3c(Cl)c2nc1C(C)C | – | > 100 µM | – | – | – | – | – | –
11 | COc1nc2cc3cccnc3c(Cl)c2nc1-c1cccs1 | – | 1.3 µM | – | – | – | – | – | IC50 [1]: 0.64 µM; IC50 [2]: 0.96 µM
12 | CCn1c(=O)c(-c2ccccc2)nc2c(Cl)c3ncccc3cc21 | – | > 100 µM | – | – | – | – | – | –
13 | O=c1[nH]c2cc3cccnc3c(Cl)c2nc1-c1cccs1 | – | 5 µM | – | – | – | – | – | –
14 | Cn1c(=O)c(-c2cccs2)nc2c(Cl)c3ncccc3cc21 | – | 2 µM | – | – | – | – | – | –
15 | NS(=O)(=O)c1ccc(-c2nc3cc4cccnc4c(Cl)c3[nH]2)cc1 | > 100 µM | > 100 µM | > 100 µM | > 100 µM | > 100 µM | > 100 µM | – | EC50 [9]: > 100 µM; EC50 [10]: > 100 µM; EC50 [13]: 21 µM; EC50 [14]: 18 µM; EC50 [15]: > 100 µM
16 | N#Cc1ccc(-c2nc3cc4cccnc4c(Cl)c3[nH]2)cc1 | > 100 µM | 0.3 µM | – | – | – | – | >333.3 | IC50 [1]: 0.48 µM; IC50 [2]: 0.75 µM
17 | N#Cc1ccc(-c2nc3cc4cccnc4cc3[nH]2)cc1 | > 100 µM | 4 µM | 21 µM | 30 µM | > 30 µM | > 100 µM | >25 | EC50 [9]: > 21 µM; EC50 [10]: 7 µM; EC50 [13]: > 30 µM; EC50 [14]: > 16 µM; EC50 [15]: > 100 µM
18 | FC(F)(F)c1ccc(-c2nc3cc4cccnc4c(Cl)c3[nH]2)cc1 | > 100 µM | 2 µM | > 100 µM | > 100 µM | > 100 µM | > 100 µM | >50 | EC50 [9]: > 56 µM; EC50 [10]: > 100 µM; EC50 [13]: > 100 µM; EC50 [14]: > 100 µM; EC50 [15]: > 100 µM

Row | Structure (SMILES) | CC50 at 72 h [6] | EC50 [7] | CC50 at 72 h [8] | CC50 [11] | EC50 [12] | EC50 [16] | Ratio CC50/EC50 [17] | further results
19 | CC(=O)c1ccc(-c2nc3cc4cccnc4c(Cl)c3[nH]2)cc1 | > 100 µM | 5.8 µM | > 100 µM | > 100 µM | > 100 µM | > 100 µM | >17.2 | EC50 [9]: > 100 µM; EC50 [10]: 60 µM; EC50 [13]: > 100 µM; EC50 [14]: > 100 µM; EC50 [15]: > 100 µM
20 | COc1ccc(-c2nc3cc4cccnc4c(Cl)c3n2CC2CCCCC2)cc1 | 20 µM | 5 µM | – | – | – | – | 4 | –
21 | FC(F)(F)c1ccc(-c2nc3cc4cccnc4cc3[nH]2)cc1 | > 100 µM | 7 µM | > 100 µM | > 100 µM | > 100 µM | > 100 µM | >14.2 | EC50 [9]: > 100 µM; EC50 [10]: 52 µM; EC50 [13]: 67 µM; EC50 [14]: > 100 µM; EC50 [15]: > 100 µM
22 | CSc1ccc(-c2nc3cc4cccnc4c(Cl)c3[nH]2)cc1 | > 100 µM | 6.1 µM | > 100 µM | > 100 µM | > 100 µM | > 100 µM | >16.4 | EC50 [9]: > 100 µM; EC50 [10]: 100 µM; EC50 [13]: > 100 µM; EC50 [14]: > 100 µM; EC50 [15]: > 100 µM
23 | COc1ccc(-c2nc3cc4cccnc4cc3[nH]2)c(OC)c1 | > 100 µM | 3.4 µM | 45 µM | 90 µM | 12 µM | 16 µM | >29.4 | EC50 [9]: > 45 µM; EC50 [10]: 38 µM; EC50 [13]: 16 µM; EC50 [14]: > 45 µM; EC50 [15]: > 90 µM
24 | Clc1c2ncccc2cc2nc(-c3ccoc3)[nH]c12 | > 100 µM | 2 µM | – | – | – | – | >50 | –
25 | O=c1cnc2c(Cl)c3ncccc3cc2[nH]1 | – | > 100 µM | – | – | – | – | – | –
26 | COc1ccc(-c2nc3cc4cccnc4c(Cl)c3[nH]2)c(OC)c1 | > 100 µM | 6.3 µM | > 100 µM | > 100 µM | 29 µM | 13 µM | >15.9 | EC50 [9]: 95 µM; EC50 [10]: > 100 µM; EC50 [13]: 41 µM; EC50 [14]: 10 µM; EC50 [15]: > 100 µM
27 | O=[N+]([O-])c1ccc(-c2nc3cc4cccnc4c(Cl)c3n2CC2CCCCC2)cc1 | 33 µM | 5 µM | 16 µM | 20 µM | > 20 µM | > 20 µM | >6.6 | EC50 [9]: > 13 µM; EC50 [10]: ≥ 16 µM; EC50 [13]: > 20 µM; EC50 [14]: > 20 µM; EC50 [15]: > 20 µM
28 | Fc1ccc(-c2nc3cc4cccnc4cc3[nH]2)c(F)c1 | > 100 µM | 6 µM | > 100 µM | > 100 µM | 35 µM | > 100 µM | >16.7 | EC50 [9]: > 100 µM; EC50 [10]: 10 µM; EC50 [13]: > 100 µM; EC50 [14]: > 58 µM; EC50 [15]: > 100 µM
29 | C[C@@]1(O)[C@H](O)[C@@H](CO)O[C@H]1n1ccc(N)nc1=O | – | – | > 100 µM | – | – | – | – | –
30 | C[C@@]1(O)[C@H](O)[C@@H](CO)O[C@H]1n1cnc2c(=O)[nH]c(N)nc21 [2'-B-METHYL-GUANOSINE] | > 10 µM | – | > 10 µM | – | – | – | >9.1 | –
31 | C#C[C@@]1(O)[C@H](O)[C@@H](CO)O[C@H]1n1ccc(N)nc1=O [2'-ETHYNYL-D-CYTIDINE] | – | – | – | > 100 µM | 27 µM | – | – | –
32 | O=c1cnn([C@@H]2O[C@H](CO)[C@@H](O)[C@H]2O)c(=O)[nH]1 [6-AZAURIDINE] | – | – | – | > 12.5 µM | – | – | – | –
33 | Nc1nc2c(ncn2COCCO)c(=O)[nH]1 [ACYCLOVIR] | – | – | – | > 100 µM | – | 1.5 µM | – | –
34 | COc1c(C)c2c(c(O)c1C/C=C(\C)CCC(=O)O)C(=O)OC2 [MYCOPHENOLIC ACID] | – | – | – | > 12.5 µM | – | – | – | –
35 | NC(=O)c1ncn([C@@H]2O[C@H](CO)[C@@H](O)[C@H]2O)n1 [RIBAVIRIN] | 5 µM | 1.3 µM | – | – | – | – | 3.8 | –
